Data taken from the supplement of paper PMC5908809.

What was measured:
[1] = test system: normal NK cells expanded with K562-aAPC; assay: drug sensitivity score (DSS) (DSS units); higher = more sensitive; extreme values may be limits of the assay; conditions: 72 h; IL-2 2.5 ng/mL
Experimental: (§1)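 Drug sensitivity and resistance testing on K562-aAPC-expanded normal NK cells: 5 concentrations (10-fold steps over a 10,000-fold range), 72 h at 37 °C, viability by CellTiter-Glo normalised to DMSO and benzethonium chloride controls; DSS from the fitted curve.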

[2] = test system: normal NK cells expanded with K562-aAPC; assay: percent inhibition of viability; higher = more inhibition; conditions: 72 h, IL-2 2.5 ng/mL
Experimental: as §1

[3] = test system: NK-YS (IL-2 2.5 ng/mL); assay: drug sensitivity score (DSS) (DSS units); higher = more sensitive; extreme values may be limits of the assay; conditions: 72 h
[4] = test system: normal primary NK cells, pool 2 (3 donors) (IL-2 2.5 ng/mL); assay: as above; conditions: 72 h
[5] = test system: normal primary NK cells, pool 1 (3 donors) (IL-2 2.5 ng/mL); assay: as above; conditions: 72 h
[6] = test system: SNK-6 (IL-2 2.5 ng/mL); assay: as above; conditions: 72 h
[7] = test system: KHYG-1 (IL-2 2.5 ng/mL); assay: as above; conditions: 72 h
[8] = test system: DERL-7 (IL-2 2.5 ng/mL); assay: as above; conditions: 72 h
[9] = test system: normal primary NK cells, pool 3 (3 donors) (IL-2 2.5 ng/mL); assay: as above; conditions: 72 h
[10] = test system: NKL (IL-2 2.5 ng/mL); assay: as above; conditions: 72 h
[11] = test system: normal primary NK cells, pool 1 (3 donors), resting (IL-2 0 ng/mL); assay: as above; conditions: 72 h
[12] = test system: KAI3 (IL-2 2.5 ng/mL); assay: as above; conditions: 72 h
[13] = test system: YT (IL-2 2.5 ng/mL); assay: as above; conditions: 72 h
[14] = test system: NK-92 (IL-2 2.5 ng/mL); assay: as above; conditions: 72 h
[15] = test system: IMC-1 (IL-2 20 ng/mL); assay: as above; conditions: 72 h
[16] = test system: NK-YS (IL-2 2.5 ng/mL); assay: percent inhibition of viability; higher = more inhibition; conditions: 72 h
[17] = test system: normal primary NK cells, pool 2 (3 donors) (IL-2 2.5 ng/mL); assay: as above; conditions: 72 h
[18] = test system: normal primary NK cells, pool 1 (3 donors) (IL-2 2.5 ng/mL); assay: as above; conditions: 72 h
[19] = test system: SNK-6 (IL-2 2.5 ng/mL); assay: as above; conditions: 72 h
[20] = test system: KHYG-1 (IL-2 2.5 ng/mL); assay: as above; conditions: 72 h
[21] = test system: DERL-7 (IL-2 2.5 ng/mL); assay: as above; conditions: 72 h
[22] = test system: normal primary NK cells, pool 3 (3 donors) (IL-2 2.5 ng/mL); assay: as above; conditions: 72 h
[23] = test system: NKL (IL-2 2.5 ng/mL); assay: as above; conditions: 72 h
[24] = test system: normal primary NK cells, pool 1 (3 donors), resting (IL-2 0 ng/mL); assay: as above; conditions: 72 h
[25] = test system: KAI3 (IL-2 2.5 ng/mL); assay: as above; conditions: 72 h
[26] = test system: YT (IL-2 2.5 ng/mL); assay: as above; conditions: 72 h
[27] = test system: NK-92 (IL-2 2.5 ng/mL); assay: as above; conditions: 72 h
[28] = test system: IMC-1 (IL-2 20 ng/mL); assay: as above; conditions: 72 h

CCCNC(=O)Nc1ccc(Oc2ncnc3cc(OC)c(OC)cc23)cc1Cl [KRN-633] (max concentration tested 2500 nM)
Conditions | drug sensitivity score
[1] | 0
[3] | 0.34
[4] | 0
[5] | 0
[6] | 0
[7] | 0
[8] | 0
[9] | 0
[10] | 5.19
[11] | 0
[12] | 2.05
[13] | 0.73
[14] | 2.65
[15] | 0

percent inhibition of viability [%]
Conditions | 0.25 nM | 2.5 nM | 25 nM | 250 nM | 2500 nM
[2] | -6.27 | -2.98 | -3.15 | 2.74 | 8.42
[16] | -5.16 | -9.39 | -4.94 | -0.21 | 16.8
[17] | -10.4 | 4.55 | 1.17 | -2.44 | 3.9
[18] | 0.25 | 12.5 | 7.25 | 8.57 | 1.55
[19] | 0.67 | -10.6 | -7.54 | -16.4 | -0.64
[20] | -7.51 | -5.95 | -2.77 | 2.64 | 8.1
[21] | -3.34 | 5.83 | -0.63 | -4.25 | 1.83
[22] | -5.17 | 5.1 | -2.11 | -6.67 | -1.34
[23] | -1.85 | 1.84 | 11.4 | 24.8 | 35.1
[24] | -6.06 | 5.96 | 3.62 | 7.14 | -4.86
[25] | 2.52 | -4.37 | -1.43 | 15 | 20.2
[26] | -4.93 | -5.67 | -0.27 | 4.17 | 16.1
[27] | -15.5 | -4.32 | 5.74 | 16.5 | 24.4
[28] | -4.82 | -0.52 | -0.33 | -1.22 | 4.98

CC(C)C[C@H](NC(=O)[C@@H](COC(C)(C)C)NC(=O)[C@H](Cc1ccc(O)cc1)NC(=O)[C@H](CO)NC(=O)[C@H](Cc1c[nH]c2ccccc12)NC(=O)[C@H](Cc1cnc[nH]1)NC(=O)[C@@H]1CCC(=O)N1)C(=O)N[C@@H](CCCNC(=N)N)C(=O)N1CCC[C@H]1C(=O)NNC(N)=O [Goserelin] (max concentration tested 10000 nM)
Conditions | drug sensitivity score
[1] | 0.04
[3] | 0
[4] | 0.22
[5] | 0
[6] | 0
[7] | 0
[8] | 0
[9] | 0
[10] | 0.26
[11] | 5.4
[12] | 0.84
[13] | 0.49
[14] | 0.34
[15] | 0.01

percent inhibition of viability [%]
Conditions | 1 nM | 10 nM | 100 nM | 1000 nM | 10000 nM
[2] | -6.58 | -6.46 | -10.9 | -5.02 | 13.2
[16] | -9.13 | -9.66 | -6.69 | -6.01 | 6.61
[17] | -6.03 | -6.27 | -2.35 | 5.13 | 11.8
[18] | 2.55 | -1.49 | 10.9 | 10.5 | -0.05
[19] | -19.4 | -9.63 | -24.4 | -13.4 | -9.52
[20] | -5.2 | -3.78 | -7.91 | -4.87 | 6.57
[21] | 0.68 | -4.54 | -4.5 | -0.44 | -4.02
[22] | -3.77 | -5.54 | 7.78 | 0.8 | -2.53
[23] | -13.2 | -11.5 | -12.2 | 0.66 | 14.8
[24] | -2.06 | 1.54 | 20.9 | 19.8 | 15.1
[25] | -6.09 | -9.54 | -7.05 | 1.42 | 21.1
[26] | -6.11 | -8.09 | -5.17 | -3.36 | 20.9
[27] | -9.16 | -10.9 | -7.22 | -12.8 | 20.7
[28] | -8.43 | -3.76 | -4.51 | -0.15 | 11.2
